Measured values: US20230159510A1, “NOVEL PRMT5 INHIBITORS” (AMGEN INC., priority 2020, published 2023)
pIC50: −log10 of the molar value. Like-named read-outs stand apart in the source and are kept apart here.

How the values were obtained:
[1] = test system: HCT116 WT cells; assay: HCT116 proliferation assay, WT cells (CellTiter-Glo, 6 days); format: cell-based; details: Homo sapiens, HCT-116, 144 h, read-out: Prolif_HCT116-WT IC50
Protocol: (§1) HCT116 MTAP null and WT cells were seeded in 96-well tissue culture plates in RPMI 1640 media + 10% fetal bovine serum. Plates were incubated overnight at 37° C. and 5% CO2. Cells were then treated with a 8- or 9-point serial dilution of compound, using a top concentration of 1 or 10 µM, 1:3 serial dilution steps and, a DMSO-only control. Cells were incubated in the presence of drug for 6 days. Effects on cell viability were measured with the CellTiter-Glo® Luminescent Cell Viability Assay (Promega) per manufacturer’s recommendation. Assay plates were read on an EnVision™ Multilabel Reader using the Ultra-Sensitive luminescence module.

[2] = test system: HCT116 MTAP null cells; assay: HCT116 proliferation assay, MTAP null cells (CellTiter-Glo, 6 days); format: cell-based; details: 144 h, read-out: Protif_ HCT116-MTAP null IC50
Protocol: as §1

pIC50 [1] | pIC50 ([2]; HCT116-MTAP null) | SMILES | pIC50 [2]
5.23 | 6.79 | CC(c1cscn1)N(Cc1ccc(C(F)(F)F)nn1)C(=O)c1cnc2nc(N)c(Br)cc2c1 (stereo not shown) [Example 766, 7-amino-6-bromo-N-(1-(thiazol-4-yl)ethyl)-N-((6-(trifluoromethyl)pyridazin-3-yl)methyl)-1,8-naphthyridine-3-carboxamide] | –
< 6.00 | 7.02 | Cc1cc2cc(C(=O)N(Cc3ccc(C(F)(F)F)cn3)Cc3ncoc3C)ccc2nc1N [Example 579, 2-amino-3-methyl-N-[(5-methyloxazol-4-yl)methyl]-N-[[5-(trifluoromethyl)-2-pyridyl]methyl]quinoline-6-carboxamide] | –
5.06 | 6.74 | C[C@H](c1ncccn1)N(Cc1ccc(C2CC2)nn1)C(=O)c1ccc2nc(N)c(Br)cc2c1 [Example 762, (R)-2-amino-3-bromo-N-((6-cyclopropylpyridazin-3-yl)methyl)-N-(1-(pyrimidin-2-yl)ethyl)quinoline-6-carboxamide] | –
6.16 | 7.39 | Cc1cc2cc(C(=O)N(Cc3ccc(N4CCOCC4)nn3)[C@H](C)c3ncccc3F)ccc2nc1N [Example 823, 2-Amino-N-((1R)-1-(3-fluoro-2-pyridinyl)ethyl)-3-methyl-N-((6-(4-morpholinyl)-3-pyridazinyl)methyl)-6-quinolinecarboxamide] | –
5.07 | 6.29 | CC(c1ncccc1F)N(Cc1ccc(N2CCOCC2)nn1)C(=O)c1cnc2nc(N)c(Br)cc2c1 (stereo in doubt) [Example 730, 7-amino-6-bromo-N-((1R)-1-(3-fluoro-2-pyridinyl)ethyl)-N-((6-(4-morpholinyl)-3-pyridazinyl)methyl)-1,8-naphthyridine-3-carboxamide] | –
5.75 | 7.21 | Cc1cc2cc(C(=O)N(Cc3ccc(C(F)(F)F)cn3)[C@@H]3COCc4ncccc43)ccc2nc1N (single isomer, unassigned) [Example 814] | –
6.39 | 6.09 | Cc1cc2cc(C(=O)N(Cc3ccccc3F)C3CC(c4ccc(OC(F)(F)F)cc4)C3)ccc2nc1N (stereo not shown) [Example 587, 2-amino-N-(2-fluorobenzyl)-3-methyl-N-(3-(4-(trifluoromethoxy)phenyl)cyclobutyl)quinoline-6-carboxamide] | –
< 6.00 | 6.54 | CCOC(C)CN(Cc1ccc(C(F)(F)F)cn1)C(=O)c1ccc2nc(N)c(C)cc2c1 (stereo not shown) [Example 584, 2-amino-N-(2-ethoxypropyl)-3-methyl-N-((5-(trifluoromethyl)pyridin-2-yl)methyl)quinoline-6-carboxamide] | –
< 5.00 | 6.57 | COC[C@@H](C)N(Cc1ccc(C(F)(F)F)cn1)C(=O)c1ccc2nc(N)c(C)cc2c1C [Example 771, 2-amino-N-((2R)-1-methoxy-2-propanyl)-3,5-dimethyl-N-((5-(trifluoromethyl)-2-pyridinyl)methyl)-6-quinolinecarboxamide] | –
5.36 | 7.24 | C[C@H](c1ncccn1)N(Cc1ccc(C2CC2)nn1)C(=O)c1ccc2nc(N)c(I)cc2c1 [Example 763, (R)-2-amino-N-((6-cyclopropylpyridazin-3-yl)methyl)-3-iodo-N-(1-(pyrimidin-2-yl)ethyl)quinoline-6-carboxamide] | –
5.28 | 6.86 | COc1ccc(CN(C[C@H](OC)C(F)(F)F)C(=O)c2ccc3nc(N)c(C)cc3c2)nn1 (single isomer, unassigned) [Example 774] | –
5.17 | 6.83 | C[C@H](c1ncccc1F)N(Cc1ccc(C(F)(F)F)nn1)C(=O)c1ccc2nc(N)c(Br)cc2c1 [Example 737, 2-amino-3-bromo-N-((1R)-1-(3-fluoro-2-pyridinyl)ethyl)-N-((6-(trifluoromethyl)-3-pyridazinyl)methyl)-6-quinolinecarboxamide] | –
5.92 | 7.41 | CO[C@@H]1CCOC[C@H]1N(Cc1ccc(C(F)(F)F)cn1)C(=O)c1ccc2nc(N)c(C)cc2c1 (racemic) [Example 833, 2-Amino-N-((3R,4R)-4-methoxytetrahydro-2H-pyran-3-yl)-3-methyl-N-((5-(trifluoromethyl)-2-pyridinyl)methyl)-6-quinolinecarboxamide and 2-amino-N-((3S,4S)-4-methoxytetrahydro-2H-pyran-3-yl)-3-methyl-N-((5-(trifluoromethyl)-2-pyridinyl)methyl)-6-quinolinecarboxamide] | –
5.87 | 7.19 | Cc1cc2cc(C(=O)N(Cc3ccc(C4CC4)nn3)[C@H](C)c3ncccn3)ccc2nc1N [Example 761, (R)-2-amino-N-((6-cyclopropylpyridazin-3-yl)methyl)-3-methyl-N-(1-(pyrimidin-2-yl)ethyl)quinoline-6-carboxamide] | –
5.29 | 6.81 | Cc1cc2cc(C(=O)N(Cc3ccc(OCC(F)(F)F)nn3)[C@H](C)c3ncccn3)ccc2nc1N [Example 790, (R)-2-amino-3-methyl-N-(1-(pyrimidin-2-yl)ethyl)-N-((6-(2,2,2-trifluoroethoxy)pyridazin-3-yl)methyl) quinoline-6-carboxamide] | –
5.27 | 6.23 | COC[C@H](C1CC1)N(Cc1ccc(C(F)(F)F)cn1)C(=O)c1ccc2nc(N)c(C)cc2c1 (single isomer, unassigned) [Example 810] | –
5.38 | 6.73 | Cc1c(Br)c(N)nc2ncc(C(=O)N(Cc3ccc(C#N)cn3)[C@H](C)c3ncccn3)cc12 [Example 744, (R)-7-amino-6-bromo-N-((5-cyanopyridin-2-yl)methyl)-5-methyl-N-(1-(pyrimidin-2-y 1)ethy 1)-1 ,8-naphthyridine-3-carboxamide] | –
5.16 | 6.60 | CO[C@@H]1CCCC[C@H]1N(Cc1ccc(C(F)(F)F)cn1)C(=O)c1cnc2nc(N)c(Br)cc2c1 (racemic) [Example 798, 7-amino-6-bromo-N-((1R,2R)-2-methoxycyclohexyl)-N-((5-(trifluoromethyl)pyridin-2-yl)methyl)-1,8-naphthyridine-3-carboxamide] | –
< 5.00 | 6.36 | COC[C@@H](C)N(Cc1ccc(C#N)cn1)C(=O)c1ccc2nc(N)c(Br)cc2c1 [Example 733, 2-amino-3-bromo-N-((5-cyano-2-pyridinyl)methyl)-N-((2R)-1-methoxy-2-propanyl)-6-quinolinecarboxamide] | –
5.70 | 6.84 | Cc1cc2cc(C(=O)N(Cc3ccc(C(F)(F)F)cn3)C(c3ncccn3)C(C)C)ccc2nc1N (stereo not shown) [Example 805, 2-amino-3-methyl-N-(2-methyl-1-(pyrimidin-2-yl)propyl)-N-((5-(trifluoromethyl)pyridin-2-yl)methyl)quinoline-6-carboxamide] | –
– | < 6.00 | C#CCCCN(Cc1ccc(C(F)(F)F)cn1)C(=O)c1ccc2nc(N)c(C)cc2c1 [Example 692, 2-amino-3-methyl-N-pent-4-ynyl-N-[[5-(trifluoromethyl)-2-pyridyl]methyl] quinoline-6-carboxamide] | –

SMILES | pIC50 [1] | pIC50 ([2]; HCT116-MTAP null) | pIC50 [2]
Cc1cc2cc(C(=O)N(Cc3ccc(C(F)(F)F)cn3)CC(C)C)ccc2nc1N [Example 300, 2-amino-N-isobutyl-3-methyl-N-((5-(trifluoromethyl)pyridin-2-yl)methyl)quinoline-6-carboxamide] | 5.28 | – | 6.50
